From PubChem BioAssay AID1259407 (Chemical Carcinogenesis Research Information System (CCRIS), 2018)
Calls of active or inactive are those of the source. No rule for the calls is given here.

Test system: CCRIS mutagenicity, Ames/micronucleus/aberration tests
Assay: CCRIS mutagenicity studies
[1] = Test System: AMES SALMONELLA TYPHIMURIUM, Strain/Indicator: TA98, Metabolic Activation: HAMSTER, LIVER, S-9, AROCLOR 1254 (10%), Method: PREINCUBATION
[2] = Test System: AMES SALMONELLA TYPHIMURIUM, Strain/Indicator: TA98, Metabolic Activation: NONE, Method: PREINCUBATION
[3] = Test System: AMES SALMONELLA TYPHIMURIUM, Strain/Indicator: TA98, Metabolic Activation: RAT, LIVER, S-9, AROCLOR 1254 (10%), Method: PREINCUBATION
[4] = Test System: AMES SALMONELLA TYPHIMURIUM, Strain/Indicator: TA100, Metabolic Activation: HAMSTER, LIVER, S-9, AROCLOR 1254 (10%), Method: PREINCUBATION
[5] = Test System: AMES SALMONELLA TYPHIMURIUM, Strain/Indicator: TA100, Metabolic Activation: NONE, Method: PREINCUBATION
[6] = Test System: AMES SALMONELLA TYPHIMURIUM, Strain/Indicator: TA100, Metabolic Activation: RAT, LIVER, S-9, AROCLOR 1254 (10%), Method: PREINCUBATION
[7] = Test System: AMES SALMONELLA TYPHIMURIUM, Strain/Indicator: TA1535, Metabolic Activation: HAMSTER, LIVER, S-9, AROCLOR 1254 (10%), Method: PREINCUBATION
[8] = Test System: AMES SALMONELLA TYPHIMURIUM, Strain/Indicator: TA1535, Metabolic Activation: NONE, Method: PREINCUBATION
[9] = Test System: AMES SALMONELLA TYPHIMURIUM, Strain/Indicator: TA1535, Metabolic Activation: RAT, LIVER, S-9, AROCLOR 1254 (10%), Method: PREINCUBATION
[10] = Test System: AMES SALMONELLA TYPHIMURIUM, Strain/Indicator: TA1537, Metabolic Activation: HAMSTER, LIVER, S-9, AROCLOR 1254 (10%), Method: PREINCUBATION
[11] = Test System: AMES SALMONELLA TYPHIMURIUM, Strain/Indicator: TA1537, Metabolic Activation: NONE, Method: PREINCUBATION
[12] = Test System: AMES SALMONELLA TYPHIMURIUM, Strain/Indicator: TA1537, Metabolic Activation: RAT, LIVER, S-9, AROCLOR 1254 (10%), Method: PREINCUBATION
[13] = End Point: IN VITRO CHROMOSOMAL ABERRATIONS, Test System: CHINESE HAMSTER OVARY CELLS, Metabolic Activation: NONE
[14] = End Point: IN VITRO CHROMOSOMAL ABERRATIONS, Test System: CHINESE HAMSTER OVARY CELLS, Metabolic Activation: RAT, LIVER, S-9, AROCLOR 1254
[15] = Test System: AMES SALMONELLA TYPHIMURIUM, Strain/Indicator: TA98, Metabolic Activation: NONE, Method: STANDARD PLATE
[16] = Test System: AMES SALMONELLA TYPHIMURIUM, Strain/Indicator: TA100, Metabolic Activation: NONE, Method: STANDARD PLATE

Measured: mutagenic call

Cc1cc(-c2ccc(N/N=C3\C(=O)c4c(O)cc(S(=O)(=O)O)cc4C=C3S(=O)(=O)O)c(C)c2)ccc1N/N=C1\C(=O)c2c(O)cc(S(=O)(=O)O)cc2C=C1S(=O)(=O)O
inactive: [1] inactive; negative | [2] inactive; negative | [3] inactive; negative | [4] inactive; negative | [5] inactive; negative | [6] inactive; negative | [7] inactive; negative | [8] inactive; negative | [9] inactive; negative | [10] inactive; negative | [11] inactive; negative | [12] inactive; negative | Test System: AMES SALMONELLA TYPHIMURIUM, Strain/Indicator: TA1538, Metabolic Activation: RAT, LIVER, S-9, AROCLOR 1254, Method: STANDARD PLATE inactive; negative

C=CCNC(N)=O
active: Test System: AMES SALMONELLA TYPHIMURIUM, Strain/Indicator: TA1535, Metabolic Activation: HAMSTER, LIVER, S-9, AROCLOR 1254 (30%), Method: PREINCUBATION active; positive
inactive: Test System: AMES SALMONELLA TYPHIMURIUM, Strain/Indicator: TA98, Metabolic Activation: HAMSTER, LIVER, S-9, AROCLOR 1254 (30%), Method: PREINCUBATION inactive; negative | [2] inactive; negative | Test System: AMES SALMONELLA TYPHIMURIUM, Strain/Indicator: TA100, Metabolic Activation: HAMSTER, LIVER, S-9, AROCLOR 1254 (5, 10 OR 30%), Method: PREINCUBATION inactive; negative | [5] inactive; negative | Test System: AMES SALMONELLA TYPHIMURIUM, Strain/Indicator: TA100, Metabolic Activation: RAT, LIVER, S-9, AROCLOR 1254 (30%), Method: PREINCUBATION inactive; negative | Test System: AMES SALMONELLA TYPHIMURIUM, Strain/Indicator: TA1535, Metabolic Activation: HAMSTER, LIVER, S-9, AROCLOR 1254 (5 OR 10%), Method: PREINCUBATION inactive; negative

CN(C)C(=O)Nc1ccc(Cl)cc1
inactive: [13] inactive; negative; precipitation occurred at all doses | Test System: AMES SALMONELLA TYPHIMURIUM, Strain/Indicator: TA98, Metabolic Activation: HAMSTER, LIVER, S-9, AROCLOR 1254, Method: PREINCUBATION inactive; negative | [2] inactive; negative | Test System: AMES SALMONELLA TYPHIMURIUM, Strain/Indicator: TA98, Metabolic Activation: RAT, LIVER, S-9, AROCLOR 1254, Method: PREINCUBATION inactive; negative | Test System: AMES SALMONELLA TYPHIMURIUM, Strain/Indicator: TA100, Metabolic Activation: HAMSTER, LIVER, S-9, AROCLOR 1254, Method: PREINCUBATION inactive; negative | [5] inactive; negative | Test System: AMES SALMONELLA TYPHIMURIUM, Strain/Indicator: TA100, Metabolic Activation: RAT, LIVER, S-9, AROCLOR 1254, Method: PREINCUBATION inactive; negative | Test System: AMES SALMONELLA TYPHIMURIUM, Strain/Indicator: TA1535, Metabolic Activation: HAMSTER, LIVER, S-9, AROCLOR 1254, Method: PREINCUBATION inactive; negative | [8] inactive; negative | Test System: AMES SALMONELLA TYPHIMURIUM, Strain/Indicator: TA1535, Metabolic Activation: RAT, LIVER, S-9, AROCLOR 1254, Method: PREINCUBATION inactive; negative | Test System: AMES SALMONELLA TYPHIMURIUM, Strain/Indicator: TA1537, Metabolic Activation: HAMSTER, LIVER, S-9, AROCLOR 1254, Method: PREINCUBATION inactive; negative | [11] inactive; negative | Test System: AMES SALMONELLA TYPHIMURIUM, Strain/Indicator: TA1537, Metabolic Activation: RAT, LIVER, S-9, AROCLOR 1254, Method: PREINCUBATION inactive; negative
active: [14] active; positive; precipitation occurred at all doses

C[C@]12CCC=C(C=O)[C@@]1(C=O)C2
active: [15] active; positive | [16] active; positive

O=C1OC(=O)c2c(Cl)c(Cl)c(Cl)c(Cl)c21
inactive: [13] inactive; negative | [14] inactive; negative | [1] inactive; negative | [2] inactive; negative | [3] inactive; negative | [4] inactive; negative | [5] inactive; negative | [6] inactive; negative | [7] inactive; negative | [8] inactive; negative | [9] inactive; negative | [10] inactive; negative | [11] inactive; negative | [12] inactive; negative

O=c1c(Cl)c(Cl)cnn1S(=O)(=O)c1ccc(Cl)cc1
inactive: [15] inactive; negative | Test System: AMES SALMONELLA TYPHIMURIUM, Strain/Indicator: TA98, Metabolic Activation: RAT, LIVER, S-9, AROCLOR 1254, Method: STANDARD PLATE inactive; negative | [16] inactive; negative | Test System: AMES SALMONELLA TYPHIMURIUM, Strain/Indicator: TA100, Metabolic Activation: RAT, LIVER, S-9, AROCLOR 1254, Method: STANDARD PLATE inactive; negative | Test System: AMES SALMONELLA TYPHIMURIUM, Strain/Indicator: TA1535, Metabolic Activation: NONE, Method: STANDARD PLATE inactive; negative | Test System: AMES SALMONELLA TYPHIMURIUM, Strain/Indicator: TA1535, Metabolic Activation: RAT, LIVER, S-9, AROCLOR 1254, Method: STANDARD PLATE inactive; negative | Test System: AMES SALMONELLA TYPHIMURIUM, Strain/Indicator: TA1537, Metabolic Activation: NONE, Method: STANDARD PLATE inactive; negative | Test System: AMES SALMONELLA TYPHIMURIUM, Strain/Indicator: TA1537, Metabolic Activation: RAT, LIVER, S-9, AROCLOR 1254, Method: STANDARD PLATE inactive; negative

COc1c2ccoc2nc2c(OC)c(OCC3OC3(C)C)ccc12 (stereo not given)
inactive: Test System: AMES SALMONELLA TYPHIMURIUM, Strain/Indicator: TA98, Metabolic Activation: RAT, LIVER, S-9, PHENOBARBITAL, Method: STANDARD PLATE inactive; negative | Test System: AMES SALMONELLA TYPHIMURIUM, Strain/Indicator: TA100, Metabolic Activation: RAT, LIVER, S-9, PHENOBARBITAL, Method: STANDARD PLATE inactive; negative
